Source: the supplement of paper PMC10307832

Columns and labels:
Experiment in all cases: relative viability (nuclei count vs DMSO), 5 days (fraction); higher = more cells survive
[1] = compound: C1CC2=C(C1)C=C(C=C2)OC3=NC(=C4C(=N3)N(C=N4)CC5=CC=C(C=C5)C6=CC=CC=C6)N[C@@H](CC7=CC=CC=C7)CO [QS11] + Cc1nc(Nc2ncc(C(=O)Nc3c(C)cccc3Cl)s2)cc(N2CCN(CCO)CC2)n1 [Dasatinib] (partner 0.075 µM)
How it was run: (§1)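 Lung cancer cell lines, seeded in 1536-well plates, were treated the following day by pin tool with a single drug or with five library-drug doses (not always all listed) in √10 steps on top of a fixed anchor-drug dose. Cells were fixed and nuclei stained in one step after 5 days, and nuclei were counted. Relative viability is the nuclei count for treated wells divided by that for vehicle wells, reported as medians of duplicate plates.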

[2] = compound: CC1=C(C=C(C=C1)NC(=O)C2=CC(=CC=C2)C(C)(C)C#N)NC3=CC4=C(C=C3)N=CN(C4=O)C [AZ628] + CC(=O)c1c(C)c2cnc(Nc3ccc(N4CCNCC4)cn3)nc2n(C2CCCC2)c1=O [Palbociclib] (partner 0.5 µM)
How it was run: as §1

[3] = compound: CC1=C(C=C(C=C1)NC(=O)C2=CC(=CC=C2)C(C)(C)C#N)NC3=CC4=C(C=C3)N=CN(C4=O)C [AZ628] + CC1(C)CCC(c2ccc(Cl)cc2)=C(CN2CCN(c3ccc(C(=O)NS(=O)(=O)c4ccc(N[C@H](CCN5CCOCC5)CSc5ccccc5)c(S(=O)(=O)C(F)(F)F)c4)cc3)CC2)C1 [Navitoclax] (partner 0.5 µM)
How it was run: as §1

[4] = compound: CC1=C(C=C(C=C1)NC(=O)C2=CC(=CC=C2)C(C)(C)C#N)NC3=CC4=C(C=C3)N=CN(C4=O)C [AZ628] + Nc1nc2[nH]cc(CCc3ccc(C(=O)N[C@@H](CCC(=O)O)C(=O)O)cc3)c2c(=O)[nH]1 [Pemetrexed] (partner 0.2 µM)
How it was run: as §1

| Cell Line | relative viability ([1]; first compound 0.08 µM) | relative viability ([1]; first compound 0.253 µM) | relative viability ([1]; first compound 2.53 µM) | relative viability ([1]; first compound 8 µM) | relative viability ([2]; first compound 0.08 µM) | relative viability ([2]; first compound 0.253 µM) | relative viability ([2]; first compound 0.8 µM) | relative viability ([2]; first compound 2.53 µM) | relative viability ([2]; first compound 8 µM) | relative viability ([3]; first compound 0.08 µM) | relative viability ([3]; first compound 0.253 µM) | relative viability ([3]; first compound 0.8 µM) | relative viability ([3]; first compound 2.53 µM) | relative viability ([3]; first compound 8 µM) | relative viability ([4]; first compound 0.08 µM) | relative viability ([4]; first compound 0.253 µM) | relative viability ([4]; first compound 0.8 µM) | relative viability ([4]; first compound 2.53 µM) | relative viability ([4]; first compound 8 µM) | relative viability ([1]; first compound 0.8 µM) |
| --- | --- | --- | --- | --- | --- | --- | --- | --- | --- | --- | --- | --- | --- | --- | --- | --- | --- | --- | --- | --- |
| NCI-H3122 | 0.876 | 0.82 | 0.969 | 0.538 | 0.159 | 0.144 | 0.142 | 0.144 | 0.137 | 0.929 | 0.762 | 0.73 | 0.555 | 0.42 | 0.185 | 0.166 | 0.161 | 0.159 | 0.151 |  |
| PC-3 [JPC-3] | 0.992 | 1.05 | 1.13 | 1.08 | 0.505 | 0.583 | 0.583 | 0.597 | 0.6 | 0.835 | 0.782 | 0.875 | 0.814 | 0.817 | 1.29 | 0.984 | 1.22 | 1.16 | 0.925 | 0.954 |
| PC-14 | 0.223 | 0.201 | 0.26 | 0.15 | 0.521 | 0.517 | 0.343 | 0.455 | 0.219 | 1.03 | 0.997 | 1.1 | 1.17 | 0.977 | 0.136 | 0.121 | 0.105 | 0.105 | 0.0944 | 0.289 |
| RERF-LC-KJ | 0.921 | 0.836 | 0.61 | 0.534 | 1.07 | 1.09 | 0.994 | 1.13 | 0.843 | 1.04 | 0.816 | 0.755 | 0.861 | 0.745 | 0.475 | 0.474 | 0.464 | 0.508 | 0.467 | 0.764 |
| SK-LU-1 | 0.175 | 0.158 | 0.167 | 0.169 | 0.284 | 0.286 | 0.349 | 0.314 | 0.288 | 0.502 | 0.878 | 1.06 | 0.886 | 0.902 | 0.603 | 0.973 | 0.885 | 1.01 | 0.66 | 0.172 |
| SK-MES-1 | 0.374 | 0.307 | 0.326 | 0.297 | 0.361 | 0.343 | 0.246 | 0.324 | 0.328 | 1.22 | 1.25 | 1.39 | 1.23 | 1.21 | 0.867 | 0.915 | 0.844 | 0.91 | 0.59 | 0.425 |
| SW 1573 | 0.537 | 0.635 | 0.393 | 0.329 | 0.409 | 0.312 | 0.275 | 0.291 | 0.173 | 0.905 | 0.746 | 0.851 | 0.902 | 0.436 | 0.806 | 0.79 | 0.675 | 0.765 | 0.461 | 0.545 |
| UMC-11 | 0.473 | 0.5 | 0.583 | 0.681 | 0.405 | 0.299 | 0.347 | 0.324 | 0.292 | 0.311 | 0.378 | 0.334 | 0.313 | 0.418 | 0.818 | 0.799 | 0.79 | 0.763 | 0.814 | 0.494 |
